From publication PMC10504751, “Chalcone/1,3,4-Oxadiazole/Benzimidazole hybrids as novel anti-proliferative agents inducing apoptosis and inhibiting EGFR & BRAFV^600E” (BMC Chemistry, 2023)

Experiments:
Experiment in all cases: NCI one-dose SRB anti-proliferative screen
Type in all cases: cell-based
[1] = test system: MCF7; settings: Homo sapiens; MCF7, Breast cancer; NCI one dose; read-out: Cell growth inhibition %
Method: (§1) The twenty-four synthesized compounds were submitted to the National Cancer Institute (NCI), USA. Eighteen hybrids 7a-h, 7k-r, 7u, and 7v were selected by NCI for one-dose assessment of their anti-proliferative activities at 10 µM dose by Sulforhodamine B colorimetric assay. The assessment was performed in 60 cell lines derived from nine tumor subpanels, comprising lung, leukemia, melanoma, colon, renal, CNS, prostate, breast, and ovarian cancer cell lines.
(§2) The methodology of the NCI anti-proliferative screening has been described in details elsewhere (http://www.dtp.nci.nih.gov).

[2] = test system: NCI-H23; settings: Homo sapiens; NCI-H23, Non-Small Cell Lung Cancer; NCI one dose; read-out: Cell growth inhibition %
Method: as §1, §2

[3] = test system: HS 578T; settings: Homo sapiens; HS 578T, Breast cancer; NCI one dose; read-out: Cell growth inhibition %
Method: as §1, §2

[4] = test system: SNB-75; settings: Homo sapiens; SNB-75, CNS Cancer; NCI one dose; read-out: Cell growth inhibition %
Method: as §1, §2

[5] = test system: SK-MEL-28; settings: Homo sapiens; SK-MEL-28, Melanoma; NCI one dose; read-out: Cell growth inhibition %
Method: as §1, §2

[6] = test system: IGROV1; settings: Homo sapiens, IGROV-1; IGROV1, Ovarian Cancer; NCI one dose; read-out: Cell growth inhibition %
Method: as §1, §2

[7] = test system: EKVX; settings: Homo sapiens; EKVX, Non-Small Cell Lung Cancer; NCI one dose; read-out: Cell growth inhibition %
Method: as §1, §2

[8] = test system: NCI-H522; settings: Homo sapiens; NCI-H522, Non-Small Cell Lung Cancer; NCI one dose; read-out: Cell growth inhibition %
Method: as §1, §2

[9] = test system: NCI-H226; settings: Homo sapiens; NCI-H226, Non-Small Cell Lung Cancer; NCI one dose; read-out: Cell growth inhibition %
Method: as §1, §2

[10] = test system: DU-145; settings: Homo sapiens; DU-145, Prostate Cancer; NCI one dose; read-out: Cell growth inhibition %
Method: as §1, §2

[11] = test system: A549/ATCC; settings: Homo sapiens; A549/ATCC, Non-Small Cell Lung Cancer; NCI one dose; read-out: Cell growth inhibition %
Method: as §1, §2

[12] = test system: HCC-2998; settings: Homo sapiens; HCC-2998, Colon cancer; NCI one dose; read-out: Cell growth inhibition %
Method: as §1, §2

[13] = test system: PC-3; settings: Homo sapiens; PC-3, Prostate Cancer; NCI one dose; read-out: Cell growth inhibition %
Method: as §1, §2

[14] = test system: CAKI-1; settings: Homo sapiens; CAKI-1, Renal cancer; NCI one dose; read-out: Cell growth inhibition %
Method: as §1, §2

[15] = test system: ACHN; settings: Homo sapiens; ACHN, Renal cancer; NCI one dose; read-out: Cell growth inhibition %
Method: as §1, §2

[16] = test system: UACC-257; settings: Homo sapiens; UACC-257, Melanoma; NCI one dose; read-out: Cell growth inhibition %
Method: as §1, §2

[17] = test system: RPMI-8226; settings: Homo sapiens; RPMI-8226, Leukemia; NCI one dose; read-out: Cell growth inhibition %
Method: as §1, §2

[18] = test system: LOX IMVI; settings: Homo sapiens, Melanoma, NCI one dose, read-out: Cell growth inhibition %
Method: as §1, §2

[19] = test system: SK-MEL-5; settings: Homo sapiens; SK-MEL-5, Melanoma; NCI one dose; read-out: Cell growth inhibition %
Method: as §1, §2

[20] = test system: MALME-3M; settings: Homo sapiens; MALME-3M, Melanoma; NCI one dose; read-out: Cell growth inhibition %
Method: as §1, §2

[21] = test system: MDA-MB-468; settings: Homo sapiens; MDA-MB-468, Breast cancer; NCI one dose; read-out: Cell growth inhibition %
Method: as §1, §2

[22] = test system: OVCAR-3; settings: Homo sapiens; OVCAR-3, Ovarian Cancer; NCI one dose; read-out: Cell growth inhibition %
Method: as §1, §2

[23] = test system: COLO 205; settings: Homo sapiens; COLO 205, Colon cancer; NCI one dose; read-out: Cell growth inhibition %
Method: as §1, §2

[24] = test system: 786-0; settings: Homo sapiens; 786-0, Renal cancer; NCI one dose; read-out: Cell growth inhibition %
Method: as §1, §2

[25] = test system: KM12; settings: Homo sapiens; KM12, Colon cancer; NCI one dose; read-out: Cell growth inhibition %
Method: as §1, §2

[26] = test system: SF-295; settings: Homo sapiens; SF-295, CNS Cancer; NCI one dose; read-out: Cell growth inhibition %
Method: as §1, §2

[27] = test system: SN12C; settings: Homo sapiens, SN 12C, Renal cancer, NCI one dose, read-out: Cell growth inhibition %
Method: as §1, §2

[28] = test system: CCRF-CEM; settings: Homo sapiens; CCRF-CEM, Leukemia; NCI one dose; read-out: Cell growth inhibition %
Method: as §1, §2

[29] = test system: UACC-62; settings: Homo sapiens; UACC-62, Melanoma; NCI one dose; read-out: Cell growth inhibition %
Method: as §1, §2

[30] = test system: SF-268; settings: Homo sapiens; SF-268, CNS Cancer; NCI one dose; read-out: Cell growth inhibition %
Method: as §1, §2

[31] = test system: SK-OV-3; settings: Homo sapiens; SK-OV-3, Ovarian Cancer; NCI one dose; read-out: Cell growth inhibition %
Method: as §1, §2

| Compound | inhibition at 10 µM [1] [%] | inhibition at 10 µM [2] [%] | inhibition at 10 µM [3] [%] | inhibition at 10 µM [4] [%] | inhibition at 10 µM [5] [%] | inhibition at 10 µM [6] [%] | inhibition at 10 µM [7] [%] | inhibition at 10 µM [8] [%] | inhibition at 10 µM [9] [%] | inhibition at 10 µM [10] [%] | inhibition at 10 µM [11] [%] | inhibition at 10 µM [12] [%] | inhibition at 10 µM [13] [%] | inhibition at 10 µM [14] [%] | inhibition at 10 µM [15] [%] | inhibition at 10 µM [16] [%] | inhibition at 10 µM [17] [%] | inhibition at 10 µM [18] [%] | inhibition at 10 µM [19] [%] | inhibition at 10 µM [20] [%] | other results |
| --- | --- | --- | --- | --- | --- | --- | --- | --- | --- | --- | --- | --- | --- | --- | --- | --- | --- | --- | --- | --- | --- |
| O=C(CSc1nnc(-c2ccc3[nH]c(-c4ccccc4)nc3c2)o1)Nc1ccc(C(=O)/C=C/c2ccccc2)cc1 [Compound 7a, 2-{5-[2-Phenyl-1 H-benzo[d]imidazol-5-yl]-1,3,4-oxadiazol-2-ylthio}-N-{4-[(E)-3-phenylacryloyl]phenyl}acetamide] | 12.4 | 0 | 0 | 0 | 0 | 4.17 | 0 | 6.57 | 0 | 0 | 0 | 0 | 0 | 0 | 0 | 0 | 5.75 | 2.69 | 1.68 | 5.5 | inhibition at 10 µM [21]: 0%; inhibition at 10 µM [22]: 0%; inhibition at 10 µM [23]: 0%; inhibition at 10 µM [24]: 0%; inhibition at 10 µM [25]: 0%; inhibition at 10 µM [26]: 0%; inhibition at 10 µM [27]: 2.04%; inhibition at 10 µM [28]: 0%; inhibition at 10 µM [29]: 2.91%; inhibition at 10 µM [30]: 0%; inhibition at 10 µM [31]: 0% |
| O=C(CSc1nnc(-c2ccc3[nH]c(-c4ccccc4)nc3c2)o1)Nc1ccc(C(=O)/C=C/c2ccc(Cl)cc2)cc1 [Compound 7b, 2-{5-[2-Phenyl-1 H-benzo[d]imidazol-5-yl]-1,3,4-oxadiazol-2-ylthio}-N-{4-[(E)-3-(4-chlorophenyl)acryloyl]phenyl}acetamide] | 16.8 | 0 | 0 | 0 | 0 | 15.3 | 0 | 11.6 | 3.63 | 0 | 0 | 0 | 0.53 | 1.52 | 0 | 0 | 12.2 | 12.9 | 3.35 | 0 | inhibition at 10 µM [21]: 0%; inhibition at 10 µM [22]: 0%; inhibition at 10 µM [23]: 0%; inhibition at 10 µM [24]: 2.96%; inhibition at 10 µM [25]: 0%; inhibition at 10 µM [26]: 0%; inhibition at 10 µM [27]: 9.8%; inhibition at 10 µM [28]: 0%; inhibition at 10 µM [29]: 11.6%; inhibition at 10 µM [30]: 0%; inhibition at 10 µM [31]: 0% |
| COc1ccc(/C=C/C(=O)c2ccc(NC(=O)CSc3nnc(-c4ccc5[nH]c(-c6ccccc6)nc5c4)o3)cc2)cc1 [Compound 7c, 2-{5-[2-Phenyl-1 H-benzo[d]imidazol-5-yl]-1,3,4-oxadiazol-2-ylthio}-N-{4-[(E)-3-(4-methoxyphenyl)acryloyl]phenyl}acetamide] | 27.5 | 7.79 | 0 | 0 | 0 | 0 | 0 | 8.81 | 2.2 | 0 | 0 | 0 | 5.12 | 0 | 2.58 | 0 | 50.9 | 6.46 | 16.8 | 8.64 | inhibition at 10 µM [21]: 0%; inhibition at 10 µM [22]: 0%; inhibition at 10 µM [23]: 0%; inhibition at 10 µM [24]: 22.6%; inhibition at 10 µM [25]: 1.55%; inhibition at 10 µM [26]: 1.65%; inhibition at 10 µM [27]: 3.32%; inhibition at 10 µM [28]: 34.5%; inhibition at 10 µM [29]: 9.5%; inhibition at 10 µM [30]: 0%; inhibition at 10 µM [31]: 0% |
| COc1ccc(/C=C/C(=O)c2ccc(NC(=O)CSc3nnc(-c4ccc5[nH]c(-c6ccccc6)nc5c4)o3)cc2)cc1OC [Compound 7d, 2-{5-[2-Phenyl-1 H-benzo[d]imidazol-5-yl]-1,3,4-oxadiazol-2-ylthio}-N-{4-[(E)-3-(3,4-dimethoxyphenyl)acryloyl]phenyl}acetamide] | 27.3 | 0 | 0 | 0 | 0 | 0 | 0 | 3.75 | 0 | 0 | 0 | 0 | 0 | 0 | 0 | 0 | 14.7 | 13.5 | 0 | 2.37 | inhibition at 10 µM [21]: 0%; inhibition at 10 µM [22]: 2.49%; inhibition at 10 µM [23]: 0%; inhibition at 10 µM [24]: 9.58%; inhibition at 10 µM [25]: 0%; inhibition at 10 µM [26]: 0%; inhibition at 10 µM [27]: 0%; inhibition at 10 µM [28]: 9.62%; inhibition at 10 µM [29]: 5.31%; inhibition at 10 µM [30]: 0%; inhibition at 10 µM [31]: 0% |
